According to patent publication US20210145801A1, “THERAPY FOR PROTEIN MISFOLDING DISEASE” (WREN THERAPEUTICS LIMITED, priority 2018, published 2021):
“Also recorded” adds a separate entry of the source.

Experiments:
AD worms (GMC101) = test: Automated motility assay (WF-NTP) in AD worms; assay type: in vivo, C. elegans
Description: Standard conditions were used for the propagation of C. elegans (S. Brenner, The genetics of Caenorhabditis elegans. Genetics. 77, 71-94 (1974)). Briefly, the animals were synchronized by hypochlorite bleaching, hatched overnight in M9 buffer (3 g/l KH2PO4, 6 g/l Na2HPO4, 5 g/l NaCl, […]), and subsequently cultured at 20° C. on nematode growth medium (NGM) (CaCl2) 1 mM, MgSO4 1 mM, cholesterol 5 μg/mL, PBS Buffer (250 μM KH2PO4, 67.5 μM KCl, 3.425 mM of NaCl, pH 6), Agar 17 g/L, NaCl 3 g/1, casein 7.5 g/l) plates seeded with the E. coli strain OP50. Saturated cultures of OP50 were grown by inoculating 50 ml of LB medium (tryptone 10 g/l, NaCl 10 g/1, yeast extract 5 g/l) with OP50 and incubating the culture for 16 h at 37° C. NGM plates were seeded with bacteria by adding 350 μl of saturated OP50 to each plate and leaving the plates at 20° C. for 2-3 days. On day 3 after synchronisation, the animals were placed on NGM plates containing 5-fluoro-2′deoxy-uridine (FUDR) (75 μM, unless stated otherwise) to inhibit the growth of offspring.
GMC101 dvIs100 [unc-54p::A-beta-1-42::unc-54 3′UTR+mtl-2p::GFP]. mtl-2p::GFP produces constitutive expression of GFP in intestinal cells. unc-54p::A-beta-1-42 expresses full-length human Aβ42 peptide in body wall muscle cells that aggregates in vivo. […]
(§1) All C. elegans populations were cultured at 20° C. and developmentally synchronized from a 4 h egg-lay. At 64-72 h post-egg-lay (time zero), individuals were transferred to FUDR plates, and body movements were assessed over the times indicated. At different ages, the animals were washed off the plates with M9 buffer and spread over an OP-50 unseeded 9 cm plate, after which their movements were recorded at 20 fps using a recently developed microscopic procedure (M. Perni et al., Massively parallel C. elegans tracking provides multi-dimensional fingerprints for phenotypic discovery. J. Neurosci. Methods. 306, 57-67 (2018)) for 1 min. Up to 600 animals were counted in each experiment in duplicate unless stated otherwise. One experiment that is representative of the three or more measured in each series of experiments is shown, and videos were analysed using a custom-made tracking code (M. Perni et al., Massively parallel C. elegans tracking provides multi-dimensional fingerprints for phenotypic discovery. J. Neurosci. Methods. 306, 57-67 (2018)).
In order to screen for the effect of therapeutics in the most robust way, a wide field-of-view nematode-tracking platform (WF-NTP) was used, which enables the simultaneous investigation of multiple phenotypic readouts on large worm populations. The WF-NTP monitors up 5000 animals in parallel, and the phenotypical readout includes multiple parallel parameters.

[1] = system: Aβ1-42Neur worms (CL2355); test: Chemotaxis assay in Aβ1-42Neur worms; assay type: in vivo, C. elegans; conditions: 5 μM; 5 days at 24° C.; day 6 of adulthood
Description: Chemotaxis measurements were carried out as previously described (O. Margie, C. Palmer, I. Chin-Sang, C. elegans Chemotaxis Assay. J Vis Exp, e50069 (2013)) and as illustrated in FIG. 6C. Briefly, adult synchronized transgenic C. elegans CL2355 worms and wild-type healthy worms were incubated with or without 5 μM Netoglitazone for 5 days 24° C. At day 6 of adulthood the worms were then collected, washed with M9 buffer three times, and assayed in 9 cm screening plates (1.9% agar, 1 mM CaCl2), 1 mM MgSO4, and 25 mM phosphate buffer, pH 6.0) seeded with 50 μl of a 10× culture of Op50 Bacteria or sterile water, as attractant or test conditions, respectively and in combination with 1 μl of 1M Levamisole. Ca. 200 worms were placed in the central quadrant of the plate and incubated at 24° C. for 8 h, after which the chemotaxis index (CI) was scored. The CI was defined as follows (O. Margie et al (2013)):
(number of worms at the attractant locations−number of worms at the control locations)/total number of worms on the plate
Worms that were remaining in the central quadrant were excluded.

[2] = system: Aβ3-42::GFPMuscular worms (CL2331); test: Automated motility assay in Aβ3-42::GFPMuscular worms; assay type: in vivo, C. elegans; conditions: vs untreated worms
Description: CL2331; dvIs37 [myo-3p::GFP::A-Beta (3-42)+rol-6(su1006)] (Aβ3-42::GFPMuscular worms). Maintain at 16C. Roller. Diffuse and aggregated GFP expression in body wall muscle. Low brood size. Sicker at higher temperatures. (C. D. Link et al., The β amyloid peptide can act as a modular aggregation domain. Neurobiol. Dis. 32, 420-425 (2008)); and
Briefly, Netoglitazone stocks (5 mM in 100% DMSO) were used at an appropriate concentration to seed 9-cm NGM plates. Plates were then placed in a laminar flow hood at room temperature (22° C.) for up to 4 hours to dry. […]
as §1, with “One experiment that is representative of the three or more measured in each series of experiments is shown, and videos were analysed using a custom-made tracking code (M. Perni et al., Massively parallel C. elegans tracking provides multi-dimensional fingerprints for phenotypic discovery. J. Neurosci. Methods. 306, 57-67 (2018)).” left out

control animals (N2) = test: Maximum tolerable dose in control animals; set-up: species or system C. elegans; conditions: in vivo
Description: Briefly, Netoglitazone stocks (5 mM in 100% DMSO) were used at an appropriate concentration to seed 9-cm NGM plates. Plates were then placed in a laminar flow hood at room temperature (22° C.) for up to 4 hours to dry. C. elegans cultures were then transferred onto media seeded with compound as L4 stage or Day 3 for late treatments and incubated at 24° for the whole experiment. Experiments were carried out at different Netoglitazone concentrations ranging from 0.05 to 500 μM in 1% DMSO. As controls, plates seeded only with 1% DMSO were used.

[3] = system: N2 control (healthy) worms; test: Automated motility assay in healthy control worms; assay type: in vivo, C. elegans; conditions: same concentration range as in AD worms
Description: Standard conditions were used for the propagation of C. elegans (S. Brenner, The genetics of Caenorhabditis elegans. Genetics. 77, 71-94 (1974)). Briefly, the animals were synchronized by hypochlorite bleaching, hatched overnight in M9 buffer (3 g/l KH2PO4, 6 g/l Na2HPO4, 5 g/l NaCl, […]), and subsequently cultured at 20° C. on nematode growth medium (NGM) (CaCl2) 1 mM, MgSO4 1 mM, cholesterol 5 μg/mL, PBS Buffer (250 μM KH2PO4, 67.5 μM KCl, 3.425 mM of NaCl, pH 6), Agar 17 g/L, NaCl 3 g/1, casein 7.5 g/l) plates seeded with the E. coli strain OP50. […]
as §1, with “One experiment that is representative of the three or more measured in each series of experiments is shown, and videos were analysed using a custom-made tracking code (M. Perni et al., Massively parallel C. elegans tracking provides multi-dimensional fingerprints for phenotypic discovery. J. Neurosci. Methods. 306, 57-67 (2018)).” left out

[4] = administered at D3, read at D5 of adulthood

## O=C1NC(=O)C(Cc2ccc3cc(OCc4ccccc4F)ccc3c2)S1 (centres unmarked) [Netoglitazone]
AD worms (GMC101); [4]
  Motility of AD worms after late administration: increase of the worm's mobility; also recorded: improves motility
  Survival rate of AD worms after late administration: increase of the worm's mobility and survival rate; also recorded: improves motility (i) and survival rates
AD worms (GMC101); administered at L4, 0.05-10 μM
  Recovery of dysfunctional phenotype / mobility of AD worms: dose dependent and statistically significant recovery in the dysfunctional phenotype
AD worms (GMC101); administered at L4, D3 of adulthood
  Concentration range of best/maximum protective effect on mobility: 0.5 to 5 µM
[1]
  Chemotaxis index of Aβ1-42Neur worms: chemotaxis index was significantly improved; also recorded: significantly improves the (A) chemotaxis index
[2]
  Motility of Aβ3-42::GFPMuscular worms: significantly improves the motility of Aβ3-42::GFPMuscular worms
Control animals (N2)
  Maximum tolerable dose in control animals: < 500 µM
[3]
  Effect on mobility of healthy worms: negligible compared to the observed effect in AD worms
